Test results taken from ChEMBL document CHEMBL1155489, “Novel 3-O-pegylated carboxylate and 3-O-pegylated carbamate prodrugs of naltrexone for microneedle-enhanced transdermal delivery” (Bioorg Med Chem Lett, 2010).
≈ marks a conversion by molar mass, not a printed value.

Experiments:
[1] = Solubility in 0.3 M acetate buffer at pH 5; type: physicochemical
[2] = Solubility in 0.3 M acetate buffer at pH 5 relative to naltrexone; type: physicochemical

## COCCOCCOCCNC(=O)Oc1ccc2c3c1O[C@H]1C(=O)CC[C@@]4(O)[C@@H](C2)N(CC2CC2)CC[C@]314
[1]
  solubility thermodynamic: 796 mM (≈ 422 mg/mL)
[2]
  Ratio: 2.35

## O=C(NCCOCCOCCO)Oc1ccc2c3c1O[C@H]1C(=O)CC[C@@]4(O)[C@@H](C2)N(CC2CC2)CC[C@]314
[1]
  solubility thermodynamic: 1040 mM (≈ 535 mg/mL)
[2]
  Ratio: 3.06

## O=C(CCOCCOCCO)Oc1ccc2c3c1O[C@H]1C(=O)CC[C@@]4(O)[C@@H](C2)N(CC2CC2)CC[C@]314
[1]
  solubility thermodynamic: 629 mM (≈ 315 mg/mL)
[2]
  Ratio: 1.86

## COCCOCCOCCC(=O)Oc1ccc2c3c1O[C@H]1C(=O)CC[C@@]4(O)[C@@H](C2)N(CC2CC2)CC[C@]314
[1]
  solubility thermodynamic: 952 mM (≈ 491 mg/mL)
[2]
  Ratio: 2.81

## O=C1CC[C@@]2(O)[C@H]3Cc4ccc(O)c5c4[C@@]2(CCN3CC2CC2)[C@H]1O5 [NALTREXONE]
[1]
  solubility thermodynamic: 338 mM (≈ 115 mg/mL)
